The values that follow come from US20240002429A1, “PRODRUG OF 5a-HYDROXY-6ß-[2-(1H-IMIDAZOL-4-YL)ETHYLAMINO]CHOLESTAN-3ß-OL AND PHARMACEUTICAL COMPOSITIONS COMPRISING SAME FOR USE IN THE TREATMENT OF CANCER” (priority 2020, published 2024).

This assay deals with T1, cholesterol epoxide hydrolase (ChEH) (Homo sapiens, UniProt Q15125).
T1 construct: endogenous in cells; host or cells: MCF-7
The assay is described as follows: Activity of cholesterol epoxide hydrolase (ChEH) in MCF-7 cells, [14C]5,6α-EC metabolization by TLC. In kind it is cell-based. As to conditions: MCF-7, 1 μM, 24 h, [14C]5,6α-EC 0.6 μM. From the text:
The compounds 5,6α-epoxycholesterol (5,6α-EC) and 5,6β-epoxycholesterol (5,6β-EC) are oxysterols involved in the anticancer pharmacology of tamoxifen, a widely used antitumor drug. They are both metabolized in cholestan-3β,5α,6β-triol (CT) by the enzyme cholesterol-5,6-epoxide hydrolase (ChEH), and CT is metabolized by the enzyme HSD11B2 (11β-hydroxysteroid dehydrogenase 2) to 6-oxo-cholestan-3β,5α-diol (OCDO), an oncosterone tumor promoter.
MCF-7 cells are in a cell culture medium identical to example 20 and are seeded in 6-well plates at 150000 cells per well with 3 wells per treatment condition. 24 h after seeding, the MCF-7 cells are treated with [^14C]5,6α-EC (stock solution 1000×: 0.6 mM; 20 μCi/μmol; final concentration 0.6 μM) alone or in combination with tamoxifen (tam). Tamoxifen is used as positive control of the study compounds. The treatment with the compound according to the invention is carried out at a concentration of 1 μM.
After 24 hours of treatment, the media are collected and lipid extracts are prepared from the cell pellets by extraction with 100 μL of chloroform, 400 μL of methanol and 300 μL of water. The lipid extracts are analyzed by thin-layer chromatography (TLC) using ethyl acetate (EtOAc) as eluent. The analysis is carried out using a plate reader and then by autoradiography.

Structures are written as SMILES.

T1 sequence (Q15125 whole entry): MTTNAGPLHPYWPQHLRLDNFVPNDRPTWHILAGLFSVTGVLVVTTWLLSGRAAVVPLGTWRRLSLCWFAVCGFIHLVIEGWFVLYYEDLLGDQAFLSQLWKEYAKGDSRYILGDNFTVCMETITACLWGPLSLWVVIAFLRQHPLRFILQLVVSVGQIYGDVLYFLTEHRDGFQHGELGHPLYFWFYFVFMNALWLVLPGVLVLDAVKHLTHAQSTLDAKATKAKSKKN

As to `CC/C(=C(\c1ccccc1)c1ccc(OCCN(C)C)cc1)c1ccccc1` [tamoxifen], the “inhibition of ChEH activity” value is “total inhibition”.
